Data set [1] is described as follows: Solubility of organic compound in the ink. In kind it is physicochemical. The settings on record: in the ink of Comparative Example 4. The source says:
Incidentally, values in the table are in mass percent. Pigment, dye, and dispersion resin in the table each show the amount of solid matter.

Data set [2] is described as follows: Octanol/water distribution coefficient (log P value, OECD Test Guideline 107). In kind it is physicochemical. An excerpt:
The octanol/water distribution coefficient is a value referred to as a log P value and refers to a value defined in OECD Test Guideline 107. As the log P value is larger, the hydrophobicity is higher. As the log P value is smaller, the hydrophilicity is higher.

Results on one molecule are retold here after US10894412B2, “Ink jet recording apparatus” (Seiko Epson Corporation, priority 2018, dated 2021).

Consider `COC(=O)c1ccc(C(=O)OC)cc1` [dimethyl terephthalate], for which the solubility result in data set [1] was “poor”. In data set [2], this molecule yielded an octanol/water distribution coefficient of 2.25.
